Source: PubChem BioAssay AID2060887 (Molecular Pharmacology Branch, DTP, NCI, 2025)

Tested on: 782815-120-R-J1-PDC complex spheroid viability
Test: Anticancer human tumor 782815-120-R-J1-PDC patient-derived colon adenocarcinoma cell line growth inhibition [RAS]
Settings: for IC50: curve of first compound; for viability, T/C: stronger effect = lower value; active means viability on the fitted dose curve at most 10% of control; inactive means the rest
Summary of the method: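 Multi-cell-type spheroids: tumor cells plus HUVEC endothelial cells and mesenchymal stem cells. RAS-pathway inhibitors were combined with targeted agents, each dosed in half-log steps down from clinical Cmax, or from 10 microM when Cmax was unknown.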

[1] = second compound 0.00316 µM, first compound 0.0316 µM
[2] = second compound 0.00316 µM, first compound 0.1 µM
[3] = second compound 0.00316 µM, first compound 0.316 µM
[4] = second compound 0.00316 µM, first compound 1 µM
[5] = second compound 0.00316 µM, first compound 3.16 µM
[6] = second compound 0.00316 µM, first compound 10 µM
[7] = second compound 0.01 µM, first compound 0.0316 µM
[8] = second compound 0.01 µM, first compound 0.1 µM
[9] = second compound 0.01 µM, first compound 0.316 µM
[10] = second compound 0.01 µM, first compound 1 µM
[11] = second compound 0.01 µM, first compound 3.16 µM
[12] = second compound 0.01 µM, first compound 10 µM
[13] = second compound 0.0316 µM, first compound 0.0316 µM
[14] = second compound 0.0316 µM, first compound 0.1 µM
[15] = second compound 0.0316 µM, first compound 0.316 µM
[16] = second compound 0.0316 µM, first compound 1 µM
[17] = second compound 0.0316 µM, first compound 3.16 µM
[18] = second compound 0.0316 µM, first compound 10 µM
[19] = second compound 0.1 µM, first compound 0.0316 µM
[20] = second compound 0.1 µM, first compound 0.1 µM
[21] = second compound 0.1 µM, first compound 0.316 µM
[22] = second compound 0.1 µM, first compound 1 µM
[23] = second compound 0.1 µM, first compound 3.16 µM
[24] = second compound 0.1 µM, first compound 10 µM
[25] = second compound 0.316 µM, first compound 0.0316 µM
[26] = second compound 0.316 µM, first compound 0.1 µM
[27] = second compound 0.316 µM, first compound 0.316 µM
[28] = second compound 0.316 µM, first compound 1 µM
[29] = second compound 0.316 µM, first compound 3.16 µM
[30] = second compound 0.316 µM, first compound 10 µM
[31] = second compound 1 µM, first compound 0.0316 µM
[32] = second compound 1 µM, first compound 0.1 µM
[33] = second compound 1 µM, first compound 0.316 µM
[34] = second compound 1 µM, first compound 1 µM
[35] = second compound 1 µM, first compound 3.16 µM
[36] = second compound 1 µM, first compound 10 µM
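Further: spheroids exposed to compounds for 7 days before reading.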
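Wherever viability, T/C is given: 100% = DMSO vehicle control viability.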

CC1(O)CCCC1n1c(=O)c(C(F)F)cc2cnc(NC3CCN(S(C)(=O)=O)CC3)nc21 (stereo not given) + C=CC(=O)N1CCN(c2nc(OCC3CCCN3C)nc3c(F)c(-c4nc(N)cc(C)c4C(F)(F)F)c(Cl)cc23)C(C)C1
inactive: viability, T/C [1] 61.5% | viability, T/C [2] 53% | viability, T/C [3] 54.5% | viability, T/C [4] 57.6% | viability, T/C [5] 53.8% | viability, T/C [6] 22% | viability, T/C [7] 72.5% | viability, T/C [8] 52.3% | viability, T/C [9] 53.3% | viability, T/C [10] 51.8% | viability, T/C [11] 52.1% | viability, T/C [12] 19% | viability, T/C [13] 58.7% | viability, T/C [14] 56.4% | viability, T/C [15] 49.2% | viability, T/C [16] 55.1% | viability, T/C [17] 51.8% | viability, T/C [18] 22.1% | viability, T/C [19] 65.4% | viability, T/C [20] 50.7% | viability, T/C [21] 51.3% | viability, T/C [22] 52.3% | viability, T/C [23] 54.2% | viability, T/C [24] 18.6% | viability, T/C [25] 56.4% | viability, T/C [26] 52.8% | viability, T/C [27] 48.9% | viability, T/C [28] 50.9% | viability, T/C [29] 53.4% | viability, T/C [30] 19.8% | viability, T/C [31] 61% | viability, T/C [32] 55.7% | viability, T/C [33] 47.5% | viability, T/C [34] 46.7% | viability, T/C [35] 44.9% | viability, T/C [36] 18.3%
3380 nM: IC50 (second compound 0.0316 µM)
3640 nM: IC50 (second compound 0.00316 µM)
786 nM: IC50 (second compound 1 µM)
2360 nM: IC50 (second compound 0.01 µM)
3610 nM: IC50 (second compound 0.1 µM)
3450 nM: IC50 (second compound 0.316 µM)

CCC(CC)c1cc(NC2CCC(N)C2)n2nccc2n1 (stereo not given) + C=CC(=O)N1CCN(c2nc(OCC3CCCN3C)nc3c(F)c(-c4nc(N)cc(C)c4C(F)(F)F)c(Cl)cc23)C(C)C1
2160 nM: IC50 (second compound 0.1 µM)
2540 nM: IC50 (second compound 0.316 µM)
active: viability, T/C [6] 1.4% | viability, T/C [12] 1.14% | viability, T/C [18] 1.3% | viability, T/C [24] 1.7% | viability, T/C [30] 1.49% | viability, T/C [36] 2.19%
2450 nM: IC50 (second compound 0.0316 µM)
2280 nM: IC50 (second compound 0.00316 µM) | IC50 (second compound 1 µM)
inactive: viability, T/C [1] 108% | viability, T/C [2] 111% | viability, T/C [3] 106% | viability, T/C [4] 98.3% | viability, T/C [5] 31% | viability, T/C [7] 105% | viability, T/C [8] 107% | viability, T/C [9] 108% | viability, T/C [10] 104% | viability, T/C [11] 30.4% | viability, T/C [13] 101% | viability, T/C [14] 103% | viability, T/C [15] 95.8% | viability, T/C [16] 115% | viability, T/C [17] 34.6% | viability, T/C [19] 102% | viability, T/C [20] 98.2% | viability, T/C [21] 104% | viability, T/C [22] 98.4% | viability, T/C [23] 26.2% | viability, T/C [25] 103% | viability, T/C [26] 101% | viability, T/C [27] 95.5% | viability, T/C [28] 106% | viability, T/C [29] 37.9% | viability, T/C [31] 98% | viability, T/C [32] 104% | viability, T/C [33] 103% | viability, T/C [34] 100% | viability, T/C [35] 29.9%
2320 nM: IC50 (second compound 0.01 µM)

CCN1CCN(Cc2ccc(Nc3ncc(F)c(-c4cc(F)c5nc(C)n(C(C)C)c5c4)n3)nc2)CC1 + C=CC(=O)N1CCN(c2nc(OCC3CCCN3C)nc3c(F)c(-c4nc(N)cc(C)c4C(F)(F)F)c(Cl)cc23)C(C)C1
> 1000 nM: IC50 (second compound 0.00316 µM) | IC50 (second compound 0.01 µM) | IC50 (second compound 0.0316 µM) | IC50 (second compound 0.1 µM) | IC50 (second compound 0.316 µM) | IC50 (second compound 1 µM)
inactive: viability, T/C (second compound 0.00316 µM, first compound 0.00316 µM) 95.3% | viability, T/C (second compound 0.00316 µM, first compound 0.01 µM) 98.8% | viability, T/C [1] 99.3% | viability, T/C [2] 101% | viability, T/C [3] 105% | viability, T/C [4] 128% | viability, T/C (second compound 0.01 µM, first compound 0.00316 µM) 98.9% | viability, T/C (second compound 0.01 µM, first compound 0.01 µM) 97.2% | viability, T/C [7] 95.8% | viability, T/C [8] 98.2% | viability, T/C [9] 104% | viability, T/C [10] 118% | viability, T/C (second compound 0.0316 µM, first compound 0.00316 µM) 102% | viability, T/C (second compound 0.0316 µM, first compound 0.01 µM) 105% | viability, T/C [13] 99.5% | viability, T/C [14] 103% | viability, T/C [15] 108% | viability, T/C [16] 118% | viability, T/C (second compound 0.1 µM, first compound 0.00316 µM) 93.4% | viability, T/C (second compound 0.1 µM, first compound 0.01 µM) 96.1% | viability, T/C [19] 106% | viability, T/C [20] 103% | viability, T/C [21] 108% | viability, T/C [22] 116% | viability, T/C (second compound 0.316 µM, first compound 0.00316 µM) 96.5% | viability, T/C (second compound 0.316 µM, first compound 0.01 µM) 96.5% | viability, T/C [25] 102% | viability, T/C [26] 99.3% | viability, T/C [27] 111% | viability, T/C [28] 117% | viability, T/C (second compound 1 µM, first compound 0.00316 µM) 92% | viability, T/C (second compound 1 µM, first compound 0.01 µM) 90.8% | viability, T/C [31] 104% | viability, T/C [32] 96.1% | viability, T/C [33] 108% | viability, T/C [34] 123%

Cc1nc(N2CCC3(CC2)COC(C)C3N)c(CO)nc1Sc1ccnc(N)c1Cl (stereo not given) + C=CC(=O)N1CCN(c2nc(OCC3CCCN3C)nc3c(F)c(-c4nc(N)cc(C)c4C(F)(F)F)c(Cl)cc23)C(C)C1
> 10000 nM: IC50 (second compound 0.00316 µM) | IC50 (second compound 0.01 µM) | IC50 (second compound 0.0316 µM) | IC50 (second compound 0.1 µM) | IC50 (second compound 0.316 µM) | IC50 (second compound 1 µM)
inactive: viability, T/C [1] 92.3% | viability, T/C [2] 107% | viability, T/C [3] 97.4% | viability, T/C [4] 96% | viability, T/C [5] 106% | viability, T/C [6] 101% | viability, T/C [7] 103% | viability, T/C [8] 115% | viability, T/C [9] 96.2% | viability, T/C [10] 108% | viability, T/C [11] 104% | viability, T/C [12] 100% | viability, T/C [13] 101% | viability, T/C [14] 98.9% | viability, T/C [15] 97.8% | viability, T/C [16] 97.3% | viability, T/C [17] 95.1% | viability, T/C [18] 101% | viability, T/C [19] 98.7% | viability, T/C [20] 110% | viability, T/C [21] 98.1% | viability, T/C [22] 105% | viability, T/C [23] 104% | viability, T/C [24] 97.9% | viability, T/C [25] 103% | viability, T/C [26] 102% | viability, T/C [27] 103% | viability, T/C [28] 105% | viability, T/C [29] 108% | viability, T/C [30] 102% | viability, T/C [31] 98.6% | viability, T/C [32] 102% | viability, T/C [33] 95.8% | viability, T/C [34] 100% | viability, T/C [35] 99.9% | viability, T/C [36] 104%

NC1c2ccccc2OC12CCN(c1cnc3c(N4CCCc5ncccc54)n[nH]c3n1)CC2 (stereo not given) + C=CC(=O)N1CCN(c2nc(OCC3CCCN3C)nc3c(F)c(-c4nc(N)cc(C)c4C(F)(F)F)c(Cl)cc23)C(C)C1
> 10000 nM: IC50 (second compound 0.00316 µM) | IC50 (second compound 0.01 µM) | IC50 (second compound 0.0316 µM) | IC50 (second compound 0.1 µM) | IC50 (second compound 0.316 µM) | IC50 (second compound 1 µM)
inactive: viability, T/C [1] 94.4% | viability, T/C [2] 110% | viability, T/C [3] 95.4% | viability, T/C [4] 93.8% | viability, T/C [5] 98.2% | viability, T/C [6] 84.4% | viability, T/C [7] 98.4% | viability, T/C [8] 95.6% | viability, T/C [9] 89% | viability, T/C [10] 91.3% | viability, T/C [11] 93.8% | viability, T/C [12] 82.8% | viability, T/C [13] 96.4% | viability, T/C [14] 107% | viability, T/C [15] 98.3% | viability, T/C [16] 100% | viability, T/C [17] 99.7% | viability, T/C [18] 71.9% | viability, T/C [19] 95.1% | viability, T/C [20] 105% | viability, T/C [21] 91.7% | viability, T/C [22] 107% | viability, T/C [23] 95.8% | viability, T/C [24] 79.7% | viability, T/C [25] 98% | viability, T/C [26] 90.9% | viability, T/C [27] 88.5% | viability, T/C [28] 100% | viability, T/C [29] 94.3% | viability, T/C [30] 74.6% | viability, T/C [31] 108% | viability, T/C [32] 86.4% | viability, T/C [33] 103% | viability, T/C [34] 93.3% | viability, T/C [35] 91.8% | viability, T/C [36] 77.8%
